Where a name gives a salt, the structure may show the parent alone.
Legend:
[1] = system: KM-Luc/GFP cells; assay: Anticancer activity after administration into the accessory axillary lymph node, mouse model of proper axillary lymph node metastasis (KM-Luc/GFP), luciferase imaging; assay type: in vivo; design: key to Luciferase activity ratio calculated by Expression 3: day9/day6 normalized luciferase ratio, 0 μg/g set to 100; conditions: for Luciferase activity ratio calculated by Expression 3: 0 μg/g set to 100
Protocol: As a mouse model of lymphadenopathy, MXH10/Mo/lpr/lpr (MXH10/Mo/lpr) mice were prepared in accordance with the method previously reported (J Immunol Methods 2013; 389 (1-2): 69-78 doi 10.1016/j.jim.2013.01.004). In the following Examples, in total, 5 male and female model mice aged 15 to 18 weeks were used.
Mouse fibroblast-derived KM-Luc/GFP cells were prepared in accordance with the method previously reported (PLoS One 2013; 8 (2): e55797 doi 10.1371/journal.pone.0055797). The KM-Luc/GFP cells were obtained by transfecting MRL/MpTn-gld/gld mouse fibroblast-derived cancer cells, MRL/N1 cells, with pEGFPLuc plasmid. The KM-Luc/GFP cells constantly express a luciferase gene and a green fluorescent gene. In the following Examples, the cells were cultured in Dulbecco's modified Eagle's medium (manufactured by Sigma-Aldrich) containing 10% FBS (fetal bovine serum), 1% L-Glutamine-P.S. solution (manufactured by Thermo Fisher Scientific) and 0.5% G418 and put in use.
(§1) KM-Luc/GFP (cancer) cells, which were prepared by thawing the cells stored at −80° C. and thereafter sub-culturing them twice in total, were suspended in PBS (phosphate buffered saline) and the concentration thereof was controlled to be 1.0×10^6 cells/mL. Thereafter, the cell suspension was mixed with Matrigel (basement membrane matrix, manufactured by Becton, Dickinson and Co.) and diluted to a concentration of 3.3×10^5 cells/mL, and then, the resultant (60 μL) was inoculated into mouse subiliac lymph node (FIG. 1). The day when the cancer cells were inoculated was specified as day 0.
Using a biological fluorescence imaging system (IVIS manufactured by Caliper Life Science), the growth rates of cancer cells in the subiliac lymph node and proper axillary lymph node were determined on day 0, day 6 and day 9 after inoculation of the cancer cells. 200 μL of luciferin (manufactured by Promega), the concentration of which was controlled to be 15 mg/mL, was injected into the abdominal cavity of the mouse. Ten minutes later, luciferase activity was determined using the IVIS.
Of the mice on day 6 after cancer cell inoculation, mice having a luciferase activity of 1.0×10^6 photons/sec or more in the proper axillary lymph node were selected, and 120 μL of 5-FU was administered to the accessory axillary lymph node at a rate of 10 μL/min by use of a syringe pump (KDS100, manufactured by Muromachi) (FIG. 1).
The luciferase activities on day 6 and day 9 were normalized in accordance with the following [Expression 1]. Thereafter, the ratio of the normalized luciferase activity on day 9 to that on day 6 was calculated in accordance with the following [Expression 2]. The ratio of the normalized luciferase activity on day 9 to that on day 6 at each administration concentration of 5-FU, when the ratio of the normalized luciferase activity on day 9 to that on day 6 at administration of 0 μg/g was set to 100, was calculated in accordance with the following [Expression 3]. Normalized luciferase activity on day 6 or day 9=((luciferase activity on day 6 or day 9)/(luciferase activity on day 0)) [Expression 1] Ratio of normalized luciferase activity on day 9 to that on day 6=((normalized luciferase activity on day 9)/(normalized luciferase activity on day 6)) [Expression 2] Ratio of normalized luciferase activity on day 9 to that on day 6 at each administration concentration of 5-FU, when the ratio of normalized luciferase activity on day 9 to that on day 6 at administration of 0 μg/g was set to 100,=((ratio of normalized luciferase activity on day 9 to that on day 6 at each administration concentration of 5-FU)/(ratio of normalized luciferase activity on day 9 to that on day 6 at administration of 0 μg/g)×100) [Expression 3] 3. Results […]
The same method as in Example 1 was employed except that the test drug to be administered to the accessary axillary lymph node was changed to doxorubicin.

[2] = system: cancer cell strain; conditions: cited from earlier work
[3] = system: cancer-containing proper axillary lymph node (PALN); conditions: administration through the subiliac lymph node (SiLN); cited from earlier work
[4] = system: FM3A-Luc cells; assay: Anticancer activity of docetaxel administered into a lymph node, mouse model of proper axillary lymph node metastasis (FM3A-Luc), luciferase imaging; assay type: in vivo; conditions: for Luciferase activity ratio calculated by Expression 6 (day 6^T): day 6^T to day −1^T
Protocol: Mouse breast cancer cell-derived FM3A-Luc cells were prepared in accordance with the method previously reported (J Immunol Methods 2013 Mar 29; 389 (1-2): 69-78. doi: 10.1016/j.jim.2013.01.004.). The FM3A-Luc cells were obtained by gene-introduction of pGL4.51 into FM3A cells by means of electroporation and constantly express a luciferase gene. In the following Examples, the cells were cultured in RPMI-1640 (manufactured by Sigma-Aldrich) containing 10% FBS (fetal bovine serum), 1% of an L-Glutamine-P.S. solution (manufactured by Theimo Fisher Scientific) and 0.5% of G418 and put in use.
As docetaxel, taxotere for intravenous infusion, 80 mg (manufactured by Sanofi K. K.) was used. Taxotere for intravenous infusion 80 mg (2 mL) was dissolved in 13% ethanol (6 mL) to prepare a 10 mg/mL stock solution. Thereafter, the stock solution was dissolved with sterile water in such a way that the concentration per mouse body-weight became 0 μg/g, 1 μg/g and 10 μg/g.
as §1, with “FM3A-Luc (cancer) cells,” for “KM-Luc/GFP (cancer) cells,”, “thawing the cancer cells stored” for “thawing the cells stored”, “were suspended with PBS (phosphate” for “were suspended in PBS (phosphate”, “and diluted up to a” for “and diluted to a”
Using a biological fluorescence imaging system (IVIS manufactured by Caliper Life Science), the growth rates of cancer cells in the subiliac lymph node and proper axillary lymph node were determined on day 0, day 7, day 14, day 17, day 20, day 23, day 26 and day 29 after inoculation of the cancer cells. 200 μL of luciferin (manufactured by Promega), the concentration of which was controlled to be 15 mg/mL, was injected into the abdominal cavity of the mouse. Ten minutes later, luciferase activity was determined using the IVIS.
To a mouse confirmed to have a luciferase activity of 1.0×10^6 photons/sec or more in the proper axillary lymph node, docetaxel (120 μL) was administered to the accessory axillary lymph node on the day following confirmation at a rate of 10 μL/min by use of a syringe pump (KDS100, manufactured by Muromachi) (FIG. 1).
The day when docetaxel was administered was defined as day 0^T. The luciferase activity on day 3^T (3 days after administration of docetaxel) and the luciferase activity on day 6^T (6 days after administration of docetaxel) were normalized in accordance with the following [Expression 4]. Thereafter, the ratio of the normalized luciferase activity on day 3^T or day 6^T to that on day −1^T (the day when the luciferase activity in the proper axillary lymph node was confirmed to be 1.0×10^6 photons/sec or more and the day before docetaxel administration) was calculated in accordance with the following [Expression 5]. The ratio of the normalized luciferase activity on day 3^T or day 6^T to that on day −1^T at each administration concentration of docetaxel, when the ratio of the normalized luciferase activity on day 3^T or day 6^T to that on day −1^T at administration of 0 μg/g was set to 100, was calculated in accordance with the following [Expression 6]. […]

[5] = 0.1 μg/g into accessory axillary lymph node, day 9 to day 6 ratio in proper axillary lymph node
[6] = 1 μg/g into accessory axillary lymph node, day 9 to day 6 ratio
[7] = 10 μg/g into accessory axillary lymph node, day 9 to day 6 ratio

CCc1c2c(nc3ccc(OC(=O)N4CCC(N5CCCCC5)CC4)cc13)-c1cc3c(c(=O)n1C2)COC(=O)[C@]3(O)CC [CPT-11, irinotecan hydrochloride]
Luciferase activity ratio calculated by Expression 3 ([1]; 0.5 μg/g into accessory axillary lymph node, day 9 to day 6 ratio): 6.06 | Luciferase activity ratio calculated by Expression 3 ([1]; 5 μg/g into accessory axillary lymph node, day 9 to day 6 ratio): 3.03 | tumor regression effect ([1]; dose 0.5 μg/g): ≥ 90%

COc1cccc2c1C(=O)c1c(O)c3c(c(O)c1C2=O)C[C@@](O)(C(=O)CO)C[C@@H]3O[C@H]1C[C@H](N)[C@H](O)[C@H](C)O1 [Doxorubicin, doxorubicin hydrochloride]
Luciferase activity ratio calculated by Expression 3 [1, 5]: 40.9 | Luciferase activity ratio calculated by Expression 3 [1, 6]: 43.2 | Luciferase activity ratio calculated by Expression 3 [1, 7]: 75.0 | best tumor reduction ratio ([1]; dose 1 μg/g): less than 60% | tumor reduction ratio ([1]; dose 10 μg/g): about 25% | cell growth inhibitory activity (GI50 value) of doxorubicin, times as high as those of 5-FU and CPT-11 [2]: 10 to 1,000 times | anticancer effect in the proper axillary lymph node [3]: resulted in an anticancer effect

CC(=O)O[C@@]12CO[C@@H]1C[C@H](O)[C@@]1(C)C(=O)[C@H](O)C3=C(C)[C@@H](OC(=O)[C@H](O)[C@@H](NC(=O)OC(C)(C)C)c4ccccc4)C[C@@](O)([C@@H](OC(=O)c4ccccc4)[C@H]21)C3(C)C [Docetaxel, docetaxel]
Luciferase activity ratio calculated by Expression 6 (day 6^T) ([4]; 1 μg/g into accessory axillary lymph node, 0 μg/g set to 100): 7.5 | Luciferase activity ratio calculated by Expression 6 (day 3^T) ([4]; 10 μg/g into accessory axillary lymph node, day 3^T to day −1^T, 0 μg/g set to 100): 16.2 | Luciferase activity ratio calculated by Expression 6 (day 6^T) ([4]; 10 μg/g into accessory axillary lymph node, 0 μg/g set to 100): 1.7 | tumor regression effect ([4]; dose 1 μg/g, day 6 after initiation of treatment): ≥ 90% | tumor reduction ratio ([4]; dose 10 μg/g): ≥ 80% | cell growth inhibitory activity of docetaxel compared with doxorubicin [2]: almost equal to that of doxorubicin

O=c1[nH]cc(F)c(=O)[nH]1 [5-FU, 5-fluorouracil]
Luciferase activity ratio calculated by Expression 3 [1, 5]: 9.27 | Luciferase activity ratio calculated by Expression 3 [1, 6]: 9.12 | Luciferase activity ratio calculated by Expression 3 [1, 7]: 1.49 | tumor regression effect ([1]; dose 0.1 μg/g): ≥ 90%

From patent US11559526B2, “Drug effective for lymphogenous drug administrating method” (TOHOKU UNIVERSITY, priority 2016, dated 2023)
